Results from patent US8093268B2, “Pharmaceutical compositions comprising 2-methoxy-5-(5-trifluoromethyl-tetrazol-1-yl-benzyl)-(2S-phenylpiperidin-3S-yl-)” (Glaxo Group Limited, priority 2007, dated 2012).
Each block holds one compound with its values, some of them ahead of it.

Columns and labels:
Male CD rats = experiment: Rat MEST model (maximal electroshock seizure threshold); assay type: in vivo
Experimental: This work was conducted in compliance with the Home Office Guidance on the operation of the Animals (Scientific Procedures) Act 1986 and GlaxoSmithKline ethical standards. Male CD rats (100-145 g) were supplied by Charles River, UK. Animals were group housed (6 animal per cage) with free access to food (Standard rodent chow; Harlan, UK) and water under a 12 h light/dark cycle (lights on at 0700 h). A period of at least one week between arrival at GSK and the study was allowed in all cases.
Animals were administered a test compound at the appropriate dose, route and pre-treatment time and returned to their home cage. Testing occurred in a separate room from that used for housing. Testing involved determining the threshold for tonic hindlimb extensor seizures using a Hugo Sachs Electronik stimulator which delivers a constant current of 0.3 second duration, 50 Hz, sinewave form, fully adjustable between 1 and 300 mA. Stimuli were delivered via corneal electrodes (Stean T O, Atkins A R, Heidbreder C A, Quinn L P, Trail B K, Upton N. (2005) Br J. Pharmacol. 144(5):628-35). Seizure threshold was determined using the ‘up and down’ method of Kimball et al. (1957)(Kimball A W, Burnett W T Jr, Doherty D G. (1957) Radiat Res. 7(1):1-12). The first animal tested in each group was stimulated with a current that might be expected to be close to the threshold for induction of a seizure. If a tonic seizure was not induced, then then next animal in the group received a stimulus 5 mA higher. If a tonic seizure was induced, then the next animal received a stimulus 5 mA lower. This is repeated for all animals within the control (vehicle) group. In the case of groups treated with a sodium channel blocker steps of 10 to 30 mA were used.
(§1) All doses were calculated as base. ENa9 and ENa13 were dosed via the subcutaneous (s.c.) route at 1 ml/kg in a 2% v/v DMSO/saline vehicle 30 minutes prior to test. ENa7 and ENa14 were dosed orally (p.o.) in a 1% w/v methylcellulose/water vehicle at 2 ml/kg, 60 minutes before test. Compound ENK6 was dosed with via the intraperitoneal (i.p.) route 60 minutes before the test or via the s.c. route 15 minutes before test. In both cases ENK6 was dissolved in saline.
Induction of seizure is measured as an all-or-nothing effect scored as either present (+) or absent (0) for each animal. The data for each treatment group were recorded as the number of +'s and 0's at each current level employed and this information was then used to calculate the CC50 value (current required for 50% of animals to show seizure behaviour)+standard error of the mean according to the method of Kimball et al. (1957). Drug effects were calculated as the % change in CC50. Significant differences between drug-treated animals and appropriate vehicle treated groups were assessed according to the methods of Litchfield and Wilcoxon (1949). The statistical significance of differences between sodium channel blocker alone or in combination with ENK6 was assessed using a Student's t test.

rats = experiment: FCA (Freunds Complete Adjuvant) model of inflammatory hypersensitivity to pain, weight bearing; assay type: in vivo, rat
Experimental: • Naïve weight bearing readings were taken. The hypersensitivity to pain was measured using the Rat incapacitance tester (Linton instruments). This instrument is serviced once a year and should be regularly calibrated • All rats then received an intraplantar injection of 100 ul of FCA (Freund's complete adjuvant) into the left hind paw. The FCA was sonicated for 15 minutes prior to use. • Approximately 23 hrs after administration of the FCA, pre-dose weight bearing readings were taken. All animals were then ranked and randomised for dosing according to their FCA window (predose difference in grams−naïve difference in grams). […] Celebrex 10 mg/kg p.o. (positive control) as appropriate according to ranking and randomisation. • Animals were assessed in the weight bearing apparatus 1 hour post dose. • The study was blind and randomised by FCA window using the Latin square method. • % reversals were calculated by using the naïve, pre-dose and post dose values as follows: % Reversal=[(Pre-dose−Post-dose)/(Pre-dose−Naïve)]×100 • Graphs and ED50 were calculated where appropriate using Prism4. • Statistical analysis was carried out using ANOVA followed by calculating the least square means using the statistical package Statistica 6.1 • From the dose response curves the ED20 was determined for the combination study Results • Naïve weight bearing readings were taken. The hypersensitivity to pain was measured using the Rat incapacitance tester (Linton instruments). This instrument is serviced once a year and should be regularly calibrated • All rats then received an intraplantar injection of 100 ul of FCA (Freund's complete adjuvant) into the left hind paw. The FCA was sonicated for 15 minutes prior to use. • Approximately 23 hrs after administration of the FCA, pre-dose weight bearing readings were taken. All animals were then ranked and randomised for dosing according to their FCA window (predose difference in grams−naïve difference in grams). […] See table 5 for details of the groups • Animals were assessed in the weight bearing apparatus 1 hour post dose. • The study was blind and randomised by FCA window using the Latin square method. • % reversals were calculated by using the naïve, pre-dose and post dose values as follows: % Reversal=[(Pre-dose−Post-dose)/(Pre-dose−Naïve)]×100 • Statistical analysis was carried out using ANOVA followed by calculating the least square means using the statistical package Statistica 6.1 • ED50 and ED20 values and graphs were calculated using prism5 • Naïve weight bearing readings were taken. The hypersensitivity to pain was measured using the Rat incapacitance tester (Linton instruments). This instrument is serviced once a year and should be regularly calibrated • All rats then received an intraplantar injection of 100 ul of FCA (Freund's complete adjuvant) into the left hind paw. The FCA was sonicated for 15 minutes prior to use. • Approximately 23 hrs after administration of the FCA, pre-dose weight bearing readings were taken. All animals were then ranked and randomised for dosing according to their FCA window (predose difference in grams−naïve difference in grams). […] Graphs and ED50 were calculated where appropriate using Prism5 • Statistical analysis was carried out using ANOVA followed by calculating the least square means using the statistical package Statistica 6.1 Results

[1] = Blood and brain concentrations in satellite animals of the MEST studies; assay type: in vivo, rat; conditions: 1 and 3 mg/kg s.c. with ENK6 30 mg/kg i.p.
Experimental: Satellite animals (n=3/group) received the same drugs or combinations of drugs as the test groups, and were culled at the appropriate time after dosing. Blood and brain samples were taken for analysis of the drug concentrations in these compartments.
as §1

[2] = ED20 dose alone (ENa7 0.1 mg/kg p.o.; ENK6 0.08 mg/kg s.c.)
[3] = 3 mg/kg s.c., 30 min before test, alone
[4] = FIG. 3, group marked by vertical arrow, ENK6 10 mg/kg sc 15 min ptt, Ena7 1 & 3 mg/kg po 60 min ptt

Compound: Nc1nc(N)c(-c2cccc(Cl)c2Cl)c(CF)n1 [ENa15, R(−)-2,4-diamino-5-(2,3-dichlorophenyl)-6-fluoromethyl pyrimidine methanesulphonate]
effect on seizure threshold (Male CD rats; 0.3 mg/kg p.o., 60 min before test, alone): no increase in seizure threshold
increase in CC50(mA) (Male CD rats; 1 mg/kg p.o. in the presence of ENK6 30 mg/kg s.c.): 51%

Compound: COc1ccc(-n2nnnc2C(F)(F)F)cc1CN[C@H]1CCCN[C@H]1c1ccccc1.Cl.Cl [ENK6, [2-Methoxy-5-(5-trifluoromethyl-tetrazol-1-yl)-benzyl]-([2S,3S]-2-phenyl-piperidin-3-yl)-amine dihydrochloride]
effect on seizure threshold (Male CD rats; 10 mg/kg s.c., 15 min before test, alone (first experiment)): no effect on seizure threshold
effect on seizure threshold (Male CD rats; 30 mg/kg i.p., 60 min before test, alone): no effect on seizure threshold
effect on seizure threshold (Male CD rats; 30 mg/kg s.c., 15 min before test, alone): no effect on seizure threshold
effect on FCA induced hypersensitivity (rats; 0.1-3.0 mg/kg, alone, 1 hour post dose, dihydrochloride): dose related reversal of the FCA induced hypersensitivity
effect on FCA induced hypersensitivity (rats; [2]): no significant effect on the FCA induced hypersensitivity
ED20, reversal of FCA induced hypersensitivity (rats; s.c., alone (summary of results)): approx 0.08 mg/kg

blood or brain concentration in the presence of ENK6 versus alone [1]: No increase
Compound: Cl.NC(=O)[C@@H]1CC[C@H](c2ccc(OCc3ccccc3F)cc2)N1 [ENa9, (5R)-5-(4-{[(2-fluorophenyl)methyl]oxy}phenyl)-L-prolinamide hydrochloride]
effect on seizure threshold (Male CD rats; [3]): small, but significant increase in seizure threshold

blood or brain concentration in the presence of ENK6 versus alone [1]: No increase
Compound: CN1CC[C@]2(CC[C@H](c3ccc(OCc4ccccc4F)cc3)N2)C1=O.Cl [ENa13, (2R,5R)-2-(4-{[(2-Fluorophenyl)methyl]oxy}phenyl)-7-methyl-1,7-diazaspiro[4,4]nonan-6-one hydrochloride]
effect on seizure threshold (Male CD rats; [3]): robust and significant increase in seizure threshold

Compound: Nc1nnc(-c2cccc(Cl)c2Cl)c(N)n1 [ENa7, 3,5-diamino-6-(2,3-dichlorophenyl)-1,2,4-triazine, reference compound]
effect on seizure threshold (Male CD rats; 1 mg/kg p.o., 60 min before test, alone): little or no increase in seizure threshold
CC50 value (Male CD rats; [4]): greater than 180 mA
increase in CC50 (Male CD rats; [4]): > 780%
effect on FCA induced hypersensitivity (rats; 0.1-3.0 mg/kg, alone, 1 hour post dose): dose related reversal of the FCA induced hypersensitivity
effect on FCA induced hypersensitivity (rats; [2]): no significant effect on the FCA induced hypersensitivity
